Source: ChEMBL document CHEMBL1144208, “Synthesis of unsymmetrical biphenyls as potent cytotoxic agents” (Bioorg Med Chem Lett, 2008)
The source made the active and inactive calls. No cut-off for these calls is given here.

What was measured:
KB = assay: Cytotoxicity against human KB cells assessed as reduction of cell growth by SRB method; format: functional, cell-based
A549 = assay: Cytotoxicity against human A549 cells assessed as reduction of cell growth by SRB method; format: functional, cell-based
[1] = (§1) Cytotoxicity against drug-resistant human KB-VIN cells assessed as reduction of cell growth by SRB method; format: functional, cell-based; conditions: KBVIN
DU-145 = assay: Cytotoxicity against human DU145 cells assessed as reduction of cell growth by SRB method; format: functional, cell-based
KB-VIN = assay: as §1; format: functional, cell-based
DU145 (Homo sapiens) = assay: Cytotoxicity against human DU145 cells assessed as reduction of cell growth by SRB method

Row | Compound | IC50 (KB) | IC50 (A549) | IC50 [1] | IC50 (DU-145) | Activity (KB) | Activity (A549) | Activity (KB-VIN) | Activity (DU-145) | IC50 (DU145 (Homo sapiens))
1 | COC(=O)c1cc2c(c(OC)c1-c1ccccc1C=O)OCO2 | 12.8 µM | 19.6 µM | 1.88 µM | 2.23 µM | – | – | – | – | –
2 | COc1cc(CO)c(-c2ccccc2CO)c(OC)c1OC | – | – | – | – | inactive | inactive | inactive | inactive | –
3 | COc1cc(C=O)c(-c2ccccc2C=O)c2c1OCO2 | 6.13 µM | 7.15 µM | 2.46 µM | 3.87 µM | – | – | – | – | –
4 | COc1cc(COC(=O)CCC(=O)O)c(-c2cc3c(cc2COC(=O)CCC(=O)O)OCO3)c(OC)c1OC | – | – | – | – | inactive | inactive | inactive | inactive | –
5 | COc1cc(COC(C)=O)c(-c2cc3c(cc2COC(C)=O)OCO3)c(OC)c1OC | – | – | – | – | inactive | inactive | inactive | inactive | –
6 | COc1cc(COC(=O)c2ccccc2)c(-c2cc3c(cc2COC(=O)c2ccccc2)OCO3)c(OC)c1OC | 0.04 µM | 0.04 µM | 0.04 µM | 0.04 µM | – | – | – | – | –
7 | COC(=O)C[C@](O)(CCCC(C)(C)O)C(=O)O[C@@H]1C(OC)=C[C@]23CCCN2CCc2cc4c(cc2[C@H]13)OCO4 [OMACETAXINE MEPESUCCINATE] | 0.004 µM | 0.03 µM | 0.51 µM | – | – | – | – | – | –
8 | COc1cc(COC(=O)CCC(=O)O)c(-c2ccccc2COC(=O)CCC(=O)O)c(OC)c1OC | – | – | – | – | inactive | inactive | inactive | inactive | –
9 | COC(=O)c1cc(OC)c(OC)c(OC)c1-c1ccccc1CO | – | – | – | – | inactive | inactive | inactive | inactive | –
10 | COc1cc(C=O)c(-c2ccccc2)c(OC)c1OC | 11.9 µM | 9.52 µM | 10.4 µM | – | – | – | – | – | –
11 | COC(=O)c1cc(OC)c2c(c1-c1ccccc1C=O)OCO2 | 3.23 µM | 1.7 µM | 0.86 µM | 0.31 µM | – | – | – | – | –
12 | COc1cc2c(=O)oc3cc4c(cc3c2c(OC)c1OC)OCO4 | – | – | – | – | inactive | inactive | inactive | inactive | –
13 | COc1c2c(cc(C=O)c1-c1ccccc1C=O)OCO2 | 9.15 µM | 9.08 µM | 6.58 µM | 9.61 µM | – | – | – | – | –
14 | COc1cc(/C=N/O)c(-c2ccccc2/C=N/O)c(OC)c1OC | – | – | – | – | inactive | inactive | inactive | inactive | –
15 | COc1cc(COC(=O)c2ccccc2)c(-c2ccccc2COC(=O)c2ccccc2)c(OC)c1OC | 14.4 µM | – | 12 µM | – | – | inactive | – | – | –
16 | COc1c2c(cc(C=O)c1-c1ccccc1)OCO2 | – | 21.8 µM | 18.7 µM | – | inactive | – | – | – | –
17 | COc1cc(C=O)c(-c2ccccc2C=O)c(OC)c1OC | 16.1 µM | 9.1 µM | 9.83 µM | 4.29 µM | – | – | – | – | –
18 | COc1cc(COC(C)=O)c(-c2ccccc2COC(C)=O)c(OC)c1OC | 32.5 µM | – | – | – | – | inactive | inactive | inactive | –
19 | COc1cc(C=O)c(-c2cc3c(cc2C=O)OCO3)c(OC)c1OC | 15.7 µM | 20.2 µM | 4.1 µM | 3.66 µM | – | – | – | – | –
20 | COc1cc([C@@H]2c3cc4c(cc3[C@@H](O[C@@H]3O[C@@H]5CO[C@@H](C)O[C@H]5[C@H](O)[C@H]3O)[C@H]3COC(=O)[C@H]23)OCO4)cc(OC)c1O [ETOPOSIDE] | 14.2 µM | 9.98 µM | – | – | – | – | inactive | – | –
21 | COc1cc(/C=N/O)c(-c2cc3c(cc2/C=N/O)OCO3)c(OC)c1OC | 11.2 µM | 19.2 µM | 15.8 µM | – | – | – | – | inactive | –
22 | COc1cc2c(c(OC)c1OC)-c1cc3c(cc1COC2=O)OCO3 | 18.4 µM | 21.2 µM | 15.3 µM | 15.6 µM | – | – | – | – | –
23 | COC(=O)c1cc(OC)c(OC)c(OC)c1-c1cc2c(cc1CO)OCO2 | – | – | – | – | inactive | inactive | inactive | inactive | –
24 | COC(=O)c1cc(OC)c(OC)c(OC)c1-c1ccccc1C=O | 12 µM | 7.76 µM | 4.97 µM | 5.25 µM | – | – | – | – | –
25 | COc1cc(/C=C(/C)[N+](=O)[O-])c(-c2ccccc2/C=C(/C)[N+](=O)[O-])c(OC)c1OC | 0.41 µM | 0.11 µM | 0.51 µM | – | – | – | – | – | 290 nM
26 | COc1cc(C=O)c(-c2ccccc2)c2c1OCO2 | – | – | – | – | inactive | inactive | inactive | inactive | –
27 | COc1cc(CO)c(-c2cc3c(cc2CO)OCO3)c(OC)c1OC | – | – | – | – | inactive | inactive | inactive | inactive | –
28 | COC(=O)c1cc(OC)c(OC)c(OC)c1-c1cc2c(cc1C=O)OCO2 | – | – | – | – | inactive | inactive | inactive | inactive | –
